According to patent US10519177B2, “Heterocyclic compounds and uses thereof” (Plexxikon Inc., priority 2013, dated 2019):
Read-outs that look alike come from different tables or passages of the source.

What was measured:
[1] = tested on: bromodomain; assay: at least one of the bromodomain cell assays of Example 57; format: cell-based; settings: at least one of the bromodomain cell assays described in Example 57; read-out: IC50 in at least one of the bromodomain cell assays
[2] = molecular target: BRD4-BD12 (1-477) (Homo sapiens (Human), UniProt O60885); assay: Alphascreen binding assay BRD4-BD12; settings: BRD4(1 2) H4; read-out: Biochemical activity (IC50 μM) BRD4(1 2) H4
Method in brief: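 First, compound was preincubated 1 h at room temperature with the His-tagged BRD4 protein (BD1 44-164 or tandem BD12 1-477) and acetylated H4 peptide. Next, donor and acceptor beads were added at 7.5 μg/ml final. After 30 min, AlphaScreen emission was recorded.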

[3] = tested on: MV-4-11 cells; assay: Oncology cell growth assay MV-4-11 (CellTiter Glo); format: cell-based; settings: Homo sapiens, MV4-11, 72 h, read-out: Cell activity (IC50 μM) MV-4-11 3d-Growth
Method in brief: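 MV-4-11 AML cells (MLL-AF4), 3000 per well, exposed to 8-point 1:3 compound titration from 10 μM top concentration (0.2% DMSO) for 72 h. Viability by CellTiter Glo luminescence, normalized to DMSO controls; pIC50 from four-parameter curve fit.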

Cc1noc(C)c1-c1cnc2c(-c3csc(C(=O)O)c3)cn(CC3CCC(F)(F)CC3)c2c1 [P-0484, 4-[1-[(4,4-difluorocyclohexyl)methyl]-6-(3,5-dimethylisoxazol-4-yl)pyrrolo[3,2-b]pyridin-3-yl]thiophene-2-carboxylic acid]
IC50 [1]: < 10 µM
IC50 [2]: < 1 µM
IC50 ([3]; MV-4-11, 3d growth): < 1 µM

Cc1noc(C)c1-c1cnc2c(I)cn(CC3CCCC3)c2c1 [P-0549]
IC50 [1]: < 10 µM
IC50 [2]: < 1 µM
IC50 ([3]; MV-4-11, 3d growth): < 1 µM

Cc1noc(C)c1-c1cnc2c(-c3cnn(C(F)F)c3)cn([C@H](C)c3ccccn3)c2c1 [P-0515, 4-[3-[1-(difluoromethyl)pyrazol-4-yl]-1-[(1R)-1-(2-pyridyl)ethyl]pyrrolo[3,2-b]pyridin-6-yl]-3,5-dimethyl-isoxazole]
IC50 [1]: < 10 µM
IC50 [2]: < 1 µM
IC50 ([3]; MV-4-11, 3d growth): < 1 µM

Cc1noc(C)c1-c1cnc2c(-c3ccc(C(=O)OC(C)(C)C)cc3)cn(C(CC#N)C3CCCC3)c2c1 (stereo not drawn) [P-0526, tert-butyl 4-[1-(2-cyano-1-cyclopentyl-ethyl)-6-(3,5-dimethylisoxazol-4-yl)pyrrolo[3,2-b]pyridin-3-yl]benzoate]
IC50 [1]: < 10 µM
IC50 [2]: < 1 µM
IC50 ([3]; MV-4-11, 3d growth): < 1 µM

Cc1nnn(C)c1-c1cnc2c(-c3cnn(C)c3)cn(CC3(F)CCC(F)(F)CC3)c2c1 [P-0424, 6-(3,5-dimethyltriazol-4-yl)-3-(1-methylpyrazol-4-yl)-1-[(1,4,4-trifluorocyclohexyl)methyl]pyrrolo[3,2-b]pyridine]
IC50 [1]: < 10 µM
IC50 [2]: < 1 µM
IC50 [3]: < 1 µM

Cc1noc(C)c1-c1cnc2c(-c3cnn(CC(F)(F)F)c3)cn(Cc3ccccn3)c2c1 [P-0376, 3,5-dimethyl-4-[1-(2-pyridylmethyl)-3-[1-(2,2,2-trifluoroethyl)pyrazol-4-yl]pyrrolo[3,2-b]pyridin-6-yl]isoxazole]
IC50 [1]: < 10 µM
IC50 [2]: < 1 µM
IC50 [3]: < 1 µM

Cc1cc(-c2cnc3c(-c4cnn(CC(F)(F)F)c4)cn(CC4CCC(F)(F)CC4)c3c2)cn(C)c1=O [P-0541, 5-[1-[(4,4-difluorocyclohexyl)methyl]-3-[1-(2,2,2-trifluoroethyl)pyrazol-4-yl]pyrrolo[3,2-b]pyridin-6-yl]-1,3-dimethyl-pyridin-2-one]
IC50 [1]: < 10 µM
IC50 [2]: < 1 µM
IC50 ([3]; MV-4-11, 3d growth): < 1 µM

CONC(=O)c1ccc(-c2cn(CC3(F)CCCCC3)c3cc(-c4c(C)noc4C)cnc23)cc1 [P-0497, 4-[6-(3,5-dimethylisoxazol-4-yl)-1-[(1-fluorocyclohexyl)methyl]pyrrolo[3,2-b]pyridin-3-yl]-N-methoxy-benzamide]
IC50 [1]: < 10 µM
IC50 [2]: < 1 µM
IC50 ([3]; MV-4-11, 3d growth): < 1 µM

Cc1noc(C)c1-c1cnc2c(-c3ccc(C(=O)NC4CC4)nc3)cn(CC3CCC(F)(F)CC3)c2c1 [P-0536, N-cyclopropyl-5-[1-[(4,4-difluorocyclohexyl)methyl]-6-(3,5-dimethylisoxazol-4-yl)pyrrolo[3,2-b]pyridin-3-yl]pyridine-2-carboxamide]
IC50 [1]: < 10 µM
IC50 [2]: < 1 µM
IC50 ([3]; MV-4-11, 3d growth): < 1 µM

Cc1noc(C)c1-c1cnc2c(-c3cnc(N)nc3)cn(CC3CCC(F)(F)CC3)c2c1 [P-0396, 5-[1-[(4,4-difluorocyclohexyl)methyl]-6-(3,5-dimethylisoxazol-4-yl)pyrrolo[3,2-b]pyridin-3-yl]pyrimidin-2-amine]
IC50 [1]: < 10 µM
IC50 [2]: < 1 µM
IC50 [3]: < 1 µM

Cc1noc(C)c1-c1cnc2c(-c3cnn(C)c3)cn([C@H](C)c3ccccn3)c2c1 [P-0519, 3,5-dimethyl-4-[3-(1-methylpyrazol-4-yl)-1-[(1R)-1-(2-pyridyl)ethyl]pyrrolo[3,2-b]pyridin-6-yl]isoxazole]
IC50 [1]: < 10 µM
IC50 [2]: < 1 µM
IC50 ([3]; MV-4-11, 3d growth): < 1 µM

Cc1noc(C)c1-c1cnc2c(-c3csc(C(=O)O)c3)cn(CC3(F)CCCCC3)c2c1 [P-0477, 4-[6-(3,5-dimethylisoxazol-4-yl)-1-[(1-fluorocyclohexyl)methyl]pyrrolo[3,2-b]pyridin-3-yl]thiophene-2-carboxylic acid]
IC50 [1]: < 10 µM
IC50 [2]: < 1 µM
IC50 ([3]; MV-4-11, 3d growth): 1 to 10 µM

Cc1noc(C)c1-c1cnc2c(-c3ccc(C(N)=O)cc3)cn(CC3(F)CCCCC3)c2c1 [P-0466, 4-[6-(3,5-dimethylisoxazol-4-yl)-1-[(1-fluorocyclohexyl)methyl]pyrrolo[3,2-b]pyridin-3-yl]benzamide]
IC50 [1]: < 10 µM
IC50 [2]: < 1 µM
IC50 ([3]; MV-4-11, 3d growth): < 1 µM

Cc1nnn(C)c1-c1cnc2c(-c3cnn(C(F)F)c3)cn(CC3CCC(F)(F)CC3)c2c1 [P-0357, 1-[(4,4-difluorocyclohexyl)methyl]-3-[1-(difluoromethyl)pyrazol-4-yl]-6-(3,5-dimethyltriazol-4-yl)pyrrolo[3,2-b]pyridine]
IC50 [1]: < 10 µM
IC50 [2]: < 1 µM
IC50 [3]: < 1 µM

COC(=O)c1ccc(-c2cn(CC3(F)CCC(F)(F)CC3)c3cc(-c4c(C)noc4C)cnc23)cc1F [P-0387, methyl 4-[6-(3,5-dimethylisoxazol-4-yl)-1-[(1,4,4-trifluorocyclohexyl)methyl]pyrrolo[3,2-b]pyridin-3-yl]-2-fluoro-benzoate]
IC50 [1]: < 10 µM
IC50 [2]: < 1 µM
IC50 [3]: < 1 µM

Cc1noc(C)c1-c1cnc2c(-c3ccc4[nH]c(=O)[nH]c4c3)cn(CC3(F)CCCCC3)c2c1 [P-0498, 5-[6-(3,5-dimethylisoxazol-4-yl)-1-[(1-fluorocyclohexyl)methyl]pyrrolo[3,2-b]pyridin-3-yl]-1,3-dihydrobenzimidazol-2-one]
IC50 [1]: < 10 µM
IC50 [2]: < 1 µM
IC50 ([3]; MV-4-11, 3d growth): < 1 µM

Cc1noc(C)c1-c1cnc2c(-c3ccc(-c4nnn[nH]4)cc3)cn(CC3(F)CCCCC3)c2c1 [P-0460, 4-[1-[(1-fluorocyclohexyl)methyl]-3-[4-(1H-tetrazol-5-yl)phenyl]pyrrolo[3,2-b]pyridin-6-yl]-3,5-dimethyl-isoxazole]
IC50 [1]: < 10 µM
IC50 [2]: < 1 µM
IC50 ([3]; MV-4-11, 3d growth): < 1 µM

COC(=O)c1ccc(-c2cn(CC3CC4(CCC4)C3)c3cc(-c4c(C)noc4C)cnc23)cc1 [P-0602, methyl 4-[6-(3,5-dimethylisoxazol-4-yl)-1-(spiro[3.3]heptan-6-ylmethyl)pyrrolo[3,2-b]pyridin-3-yl]benzoate]
IC50 [1]: < 10 µM
IC50 [2]: < 1 µM
IC50 ([3]; MV-4-11, 3d growth): < 1 µM

[2H]C([2H])(C1CCC(F)(F)CC1)n1cc(-c2cnc(OC)nc2)c2ncc(-c3c(C)noc3C)cc21 [P-0346, 4-[1-[dideuterio-(4,4-difluorocyclohexyl)methyl]-3-(2-methoxypyrimidin-5-yl)pyrrolo[3,2-b]pyridin-6-yl]-3,5-dimethyl-isoxazole]
IC50 [1]: < 10 µM
IC50 [2]: < 1 µM
IC50 [3]: < 1 µM

Cc1noc(C)c1-c1cnc2c(-c3cnn(CC(F)(F)F)c3)cn([C@H](C)c3ccccn3)c2c1 [P-0513, 3,5-dimethyl-4-[1-[(1R)-1-(2-pyridyl)ethyl]-3-[1-(2,2,2-trifluoroethyl)pyrazol-4-yl]pyrrolo[3,2-b]pyridin-6-yl]isoxazole]
IC50 [1]: < 10 µM
IC50 [2]: < 1 µM
IC50 ([3]; MV-4-11, 3d growth): < 1 µM

Cc1noc(C)c1-c1cnc2c(-c3ccc(C(=O)O)cc3)cn(CC3CCCCC3)c2c1 [P-0554, 4-[1-(cyclohexylmethyl)-6-(3,5-dimethylisoxazol-4-yl)pyrrolo[3,2-b]pyridin-3-yl]benzoic acid]
IC50 [1]: < 10 µM
IC50 [2]: < 1 µM
IC50 ([3]; MV-4-11, 3d growth): < 1 µM

Cc1noc(C)c1-c1cnc2c(-c3cnn(C)c3C)cn(CC3CCC(F)(F)CC3)c2c1 [P-0394, 4-[1-[(4,4-difluorocyclohexyl)methyl]-3-(1,5-dimethylpyrazol-4-yl)pyrrolo[3,2-b]pyridin-6-yl]-3,5-dimethyl-isoxazole]
IC50 [1]: < 10 µM
IC50 [2]: < 1 µM
IC50 [3]: < 1 µM

COc1ncc(-c2cn(CC3CCC(F)(F)CC3)c3cc(-c4c(C)noc4C)cnc23)cn1 [P-0391, 4-[1-[(4,4-difluorocyclohexyl)methyl]-3-(2-methoxypyrimidin-5-yl)pyrrolo[3,2-b]pyridin-6-yl]-3,5-dimethyl-isoxazole]
IC50 [1]: < 10 µM
IC50 [2]: < 1 µM
IC50 [3]: < 1 µM

Cc1noc(C)c1-c1cnc2c(-c3ccc(C(=O)O)cc3)cn(C(CC#N)C3CCCC3)c2c1 (stereo not drawn) [P-0527, 4-[1-(2-cyano-1-cyclopentyl-ethyl)-6-(3,5-dimethylisoxazol-4-yl)pyrrolo[3,2-b]pyridin-3-yl]benzoic acid]
IC50 [1]: < 10 µM
IC50 [2]: < 1 µM
IC50 ([3]; MV-4-11, 3d growth): < 1 µM

[2H]C([2H])(C1CCC(F)(F)CC1)n1cc(-c2cn(C)nc2C(F)(F)F)c2ncc(-c3c(C)noc3C)cc21 [P-0337, 4-[1-[dideuterio-(4,4-difluorocyclohexyl)methyl]-3-[1-methyl-3-(trifluoromethyl)pyrazol-4-yl]pyrrolo[3,2-b]pyridin-6-yl]-3,5-dimethyl-isoxazole]
IC50 [1]: < 10 µM
IC50 [2]: < 1 µM
IC50 [3]: < 1 µM

COC(=O)c1ccc(-c2cn([C@@H](C)c3ccccn3)c3cc(-c4c(C)noc4C)cnc23)cc1 [P-0509, methyl 4-[6-(3,5-dimethylisoxazol-4-yl)-1-[(1S)-1-(2-pyridyl)ethyl]pyrrolo[3,2-b]pyridin-3-yl]benzoate]
IC50 [1]: < 10 µM
IC50 [2]: < 1 µM
IC50 ([3]; MV-4-11, 3d growth): < 1 µM

Cc1noc(C)c1-c1cnc2c(-c3ccc(C(C)(C)C(=O)O)cc3)cn(CC3CCC(F)(F)CC3)c2c1 [P-0433, 2-[4-[1-[(4,4-difluorocyclohexyl)methyl]-6-(3,5-dimethylisoxazol-4-yl)pyrrolo[3,2-b]pyridin-3-yl]phenyl]-2-methyl-propanoic acid]
IC50 [1]: < 10 µM
IC50 [2]: < 1 µM
IC50 ([3]; MV-4-11, 3d growth): < 1 µM
